Values quoted from earlier work, collected in patent US6963011B2, “N-(2-phenyl-3-aminopropyl)naphthamides” (Astrazeneca AB, priority 2000, dated 2005).
Read-outs that look alike come from different tables or passages of the source. Non-standard residues stand in square brackets, D forms with d. Residues, ends and D or L forms follow the SMILES beside them. *: point of attachment. Cyclohexanecarbonyl = O=C(C1CCCCC1)*

Key:
[1] = Walsh et al., Psychopharmacology 121:186-191, 1995
[2] = not given; remark: listed apart in the source
[3] = not given; remark: listed apart in the source
[4] = Vassout et al., Neuropeptides 26/S1:38, 1994; only at 30 mg/kg bid
[5] = Walsh et al., Psychopharmacology 121:186-191, 1995
[6] = Teixeira et al., Eur J Pharmacol 311(1):7-14, 1996
[7] = Stratton et al., Eur. J. Pharmacol. 250:R11-12, 1993
[8] = Vassout et al., Neuropeptides 26/S1:38, 1994

Compound	Outcome, Marmoset human intruder [1]	Outcome, Light-dark box [5]	Outcome, Elevated plus-maze [2, 6]	Outcome, Light-dark box [7]	further results
COC1(C[S@@+]([O-])c2ccccc2)CCN(CCc2c[nH]c3ccc(F)cc23)CC1 [GR159897]	anxiolytic	anxiolytic			
CN(Cc1ccccc1)C(=O)[C@H](Cc1ccc2ccccc2c1)NC(=O)[C@@H]1C[C@@H](O)CN1C(=O)c1cn(C)c2ccccc12 [FK888]			anxiolytic		
C[C@H](NC(=O)CNC(=O)C1CCCCC1)C(=O)N[C@H](Cc1c[nH]c2ccccc12)C(=O)N[C@@H](Cc1ccccc1)C(=O)N(C)C [GR100679] (Cyclohexanecarbonyl-GA[dW]F-NMe2)				anxiolytic	
CC(=O)NC1(c2ccccc2)CCN(CC[C@H](CN(C)C(=O)c2ccccc2)c2ccc(Cl)c(Cl)c2)CC1 [SR48968]	anxiolytic	anxiolytic	anxiolytic	anxiolytic	
Cc1cc(C)cc(C(=O)N2CC[C@H](NCc3ccnc4ccccc34)C[C@H]2Cc2ccccc2)c1 [CGP 49823]					Outcome, Social interaction ([3]; File, Pharm Bio B 58(3):747-752, 1997): anxiolytic; Outcome, Social interaction test [3, 8]: anxiolytic; Outcome, Forced swim test (depression model) [4]: antidepressant; Outcome, Elevated plus-maze [2, 8]: inactive
